Test results reported in patent US9110059B2, “Bio-pin” (Industry-Academic Cooperation Foundation, Yonsei University, priority 2011, dated 2015).

Experiments:
Assay type in all cases: cell-based
[1] = test system: rat mesenchymal stem cells (MSCs) attached to H9c2 cells; assay: Adhesion of BPin-RGD-treated mesenchymal stem cells to H9c2 cells (intercellular bond number); conditions: stem cells treated with 100 nM bio-pin for an hour, kept 10 minutes on H9c2 cells; fluorescence 484 nm/501 nm
Description: (§1) Rat cardiac myoblast H9c2 cells were incubated until a 4-well chamber (Lab-Tek chamber slide) was 100% filled with the H9c2 cells. Thereafter, the H9c2 cells were treated with a CellMask™ plasma membrane stain (Invitrogen, USA) at a final concentration of 5 μl/mL, reacted at 37° C. for 30 minutes in a CO2 incubator, and then washed three times with PBS.
(§2) Also, rat mesenchymal stem cells (MSCs) were cultured in a MesenPRO (Gibco, USA) medium in a petri dish. Thereafter, trypsin-EDTA and a trypsin-neutralizing solution were added at a ratio of 1:1, and then reacted for 5 minutes to detach the stem cells. The stem cells were treated with a cell-modifying dye (Vybrant™ DiO, Invitrogen, USA) at a final concentration of 2 μl/mL, reacted at 37° C. for 30 minutes in a CO2 incubator, washed three times with PBS, and then centrifuged for 3 minutes at a rotary speed of 1,200 rpm.
The prepared stem cells were treated with the bio-pin prepared in Example 3 at a final concentration of 100 nM, reacted at 37° C. for an hour in a CO2 incubator while stirring right and left, washed three times with PBS, and then centrifuged to obtain a cell pellet. Subsequently, the cell pellet was re-suspended in 400 μl of a DMEM medium supplemented with 10% FBS. […] To quantify the MSCs attached to the H9c2 cells, 200 μl of 0.1% Triton X-100 was added, and removed off after 5 minutes.

[2] = test system: rat mesenchymal stem cells attached to H9c2 cells; assay: Adhesion of bio-pin-treated mesenchymal stem cells to H9c2 cells (intercellular bond number); conditions: stem cells treated with 1 μM bio-pin for an hour, kept 10 minutes on H9c2 cells; fluorescence microscope and spectrometer
Description: as §1, with “cell-labeled dye (Vybrant™ DiI)” for “CellMask™ plasma membrane stain (Invitrogen, USA)”
as §2, with “cells” for “cells (MSCs)”, “of 5” for “of 2”, “1,200 rpm to be prepared.” for “1,200 rpm.”
The prepared stem cells were treated with the peptide-based complex previously prepared in Example 1 or 2 at a final concentration of 1 μM, reacted at 37° C. for an hour in a CO2 incubator while stirring right and left, washed three times with PBS, and then centrifuged to obtain a cell pellet. […] To quantify the MSCs attached to the H9c2 cells, a cell medium was removed off, and 200 μl of 0.1% Triton X-100 was added, and removed off after 5 minutes.

[3] = test system: intercellular cell adhesion molecule-1 (ICAM-1); assay: Immunoblotting of HUVEC lysate with anti-ICAM-1 antibody; conditions: TNF-alpha 10 ng/mL for 24 hours
Description: (§3) HUVECs (5×10^4 cells/well) were cultured in an EGM medium (Lonza, USA) on a 24-well plate, starved for 4 hours in a 0.5% EBM medium, and treated with TNF-alpha (10 ng/mL) for 24 hours. Thereafter, the HUVECs were treated with a CellMask™ plasma membrane stain (Invitrogen, USA) at a final concentration of 5 μg/mL, reacted at 37° C. for 30 minutes in a CO2 incubator, and then washed three times with PBS.
(§4) Also, to determine whether the HUVECs were suitably stimulated with TNF-alpha, immunoblotting was performed using anti-ICAM-1 and anti-VCAM-1 antibodies.

[4] = test system: vascular cell adhesion molecule-1 (VCAM-1); assay: Immunoblotting of HUVEC lysate with anti-VCAM-1 antibody; conditions: TNF-alpha 10 ng/mL for 24 hours
Description: as §3, §4

Substance: BPin-RGD: bio-pin with adhesive peptide (GRGDSP) at N-terminus and TAT cell-penetrating peptide at C-terminus of the 31-amino-acid OPRD peptide (GRGDSPGSLAIAITALYSAVCAVGLLGNVLVMFGIVRYTYGRKKRRQRRR; BPin-RGD RGD-OPRD-TAT)
- number of intercellular bonds (FIG. 7) [1]: remarkably increased

Substance: BPin-55: bio-pin in which TAT cell-penetrating peptides are fused with N- and C-terminus of 31-amino-acid OPRD first transmembrane domain peptide (YGRKKRRQRRRGSLAIAITALYSAVCAVGLLGNVLVMFGIVRYTYGRKKRRQRRR; BPin-55 TAT-OPRD-TAT)
- number of intercellular bonds (FIGS. 5 and 6) [2]: remarkably increased

Substance: TNF-alpha
- ICAM-1 expression in HUVECs (FIG. 9) [3]: increasingly expressed
- VCAM-1 expression in HUVECs (FIG. 9) [4]: increasingly expressed
